# In ChEMBL document CHEMBL1201862, “PubChem BioAssay data set” (2004):
#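 Interpolation was linear, between the two tested concentrations surrounding the appropriate level; five concentrations were tested over 48 hours in 96-well plates. Here, GI50 denotes the concentration required for 50% inhibition of growth.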 Calls of active or inactive are those of the source. Rule as the data show it: active = GI50 up to about 1.1 µM and inactive = higher.
# How the values were obtained:
# Test in all cases: NCI tumour cell line growth inhibition, 48 h
# OVCAR-3 = system: OVCAR-3
# K562 = system: K562
# SNB-19 = system: SNB-19
# 786-0 = system: 786-0
# HT-29 = system: HT-29
# SK-OV-3 = system: SK-OV-3
# CAKI-1 = system: CAKI-1
# NCI-H226 = system: NCI-H226
# OVCAR-5 = system: OVCAR-5
# NCI-H522 = system: NCI-H522
# SF-539 = system: SF-539
# HOP-62 = system: HOP-62
# OVCAR-8 = system: OVCAR-8
# OVCAR-4 = system: OVCAR-4
# SK-MEL-2 = system: SK-MEL-2
# KM12 = system: KM12
# MDA-N = system: MDA-N
# MDA-MB-435 = system: MDA-MB-435
# MCF7 = system: MCF7
Compound,GI50 (OVCAR-3),GI50 (K562),GI50 (SNB-19),GI50 (786-0),GI50 (HT-29),GI50 (SK-OV-3),GI50 (CAKI-1),GI50 (NCI-H226),GI50 (OVCAR-5),GI50 (NCI-H522),GI50 (SF-539),GI50 (HOP-62),GI50 (OVCAR-8),GI50 (OVCAR-4),GI50 (SK-MEL-2),GI50 (KM12),GI50 (MDA-N),GI50 (MDA-MB-435),GI50 (MCF7)
CN(C)CCNC(=O)C1COc2cc(-c3cc(=O)c4ccccc4o3)ccc2O1 (stereo not drawn),20.5 µM (inactive),36.7 µM (inactive),23.1 µM (inactive),18.1 µM (inactive),16.9 µM (inactive),23.1 µM (inactive),17.1 µM (inactive),28.1 µM (inactive),29.6 µM (inactive),16.6 µM (inactive),17.3 µM (inactive),33 µM (inactive),23.6 µM (inactive),17.8 µM (inactive),–,–,–,–,–
Cn1c(C2CC(C)(C)c3c2c2ccccc2n3C)cc2ccccc21 (stereo not drawn),64.6 µM (inactive),> 304 µM (inactive),> 304 µM (inactive),> 304 µM (inactive),> 304 µM (inactive),> 304 µM (inactive),192 µM (inactive),180 µM (inactive),> 304 µM (inactive),72.8 µM (inactive),79.4 µM (inactive),> 304 µM (inactive),> 304 µM (inactive),–,> 304 µM (inactive),> 304 µM (inactive),–,–,–
C[N+](C)(C)Cc1c(CC#N)[nH]c2ccccc12,> 100 µM (inactive),25.8 µM (inactive),> 100 µM (inactive),24.7 µM (inactive),> 100 µM (inactive),–,96.8 µM (inactive),> 100 µM (inactive),> 100 µM (inactive),36.8 µM (inactive),> 100 µM (inactive),> 100 µM (inactive),> 100 µM (inactive),1.2 µM (inactive),> 100 µM (inactive),> 100 µM (inactive),–,–,–
COc1ccc(/C(Cl)=C(\C=N/O)c2ccc(OC)c(OC)c2)cc1OC,> 100 µM (inactive),> 100 µM (inactive),> 100 µM (inactive),> 100 µM (inactive),> 100 µM (inactive),> 100 µM (inactive),> 100 µM (inactive),> 100 µM (inactive),> 100 µM (inactive),> 100 µM (inactive),> 100 µM (inactive),49.8 µM (inactive),> 100 µM (inactive),> 100 µM (inactive),> 100 µM (inactive),> 100 µM (inactive),–,–,–
CN(C)/N=C1/CCC(C(F)(F)F)(C(F)(F)F)O1,18.5 µM (inactive),40.7 µM (inactive),41.8 µM (inactive),29.4 µM (inactive),41.8 µM (inactive),38.3 µM (inactive),41 µM (inactive),26.3 µM (inactive),58.1 µM (inactive),35.2 µM (inactive),45.4 µM (inactive),31.4 µM (inactive),–,47.6 µM (inactive),20.7 µM (inactive),20.7 µM (inactive),48.3 µM (inactive),27.5 µM (inactive),–
CC1CC2CC(=O)CC3(C1)C2CCCN3CCCO (stereo not drawn),> 100 µM (inactive),> 100 µM (inactive),> 100 µM (inactive),> 100 µM (inactive),> 100 µM (inactive),> 100 µM (inactive),> 100 µM (inactive),> 100 µM (inactive),> 100 µM (inactive),> 100 µM (inactive),> 100 µM (inactive),> 100 µM (inactive),> 100 µM (inactive),> 100 µM (inactive),> 100 µM (inactive),> 100 µM (inactive),–,–,–
Nc1nc(SCCNC(=O)CCc2ccc(O)cc2)nc2c1ncn2C1OC(CO)C(O)C1O (stereo not drawn),> 203 µM (inactive),> 203 µM (inactive),> 203 µM (inactive),> 203 µM (inactive),> 203 µM (inactive),> 203 µM (inactive),> 203 µM (inactive),> 203 µM (inactive),> 203 µM (inactive),> 203 µM (inactive),> 203 µM (inactive),> 203 µM (inactive),> 203 µM (inactive),> 203 µM (inactive),> 203 µM (inactive),> 203 µM (inactive),–,–,–
O=c1c2ccccc2c2c3c1cccc3c1cccc3c(=O)c4ccccc4c2c31,> 100 µM (inactive),> 100 µM (inactive),> 100 µM (inactive),> 100 µM (inactive),> 100 µM (inactive),> 100 µM (inactive),> 100 µM (inactive),> 100 µM (inactive),> 100 µM (inactive),> 100 µM (inactive),> 100 µM (inactive),> 100 µM (inactive),> 100 µM (inactive),> 100 µM (inactive),> 100 µM (inactive),> 100 µM (inactive),–,–,–
O=C(/C=C/c1c(O)ccc2ccccc12)c1ccc([N+](=O)[O-])cc1,17.3 µM (inactive),> 49.4 µM (inactive),> 88.9 µM (inactive),24.5 µM (inactive),54.1 µM (inactive),> 100 µM (inactive),37.8 µM (inactive),> 100 µM (inactive),> 100 µM (inactive),17 µM (inactive),37.8 µM (inactive),> 100 µM (inactive),37.2 µM (inactive),18.5 µM (inactive),33.2 µM (inactive),67.1 µM (inactive),–,–,–
CC1=C(C#N)C2C(=C(C)N1)C(N)=Nc1ccccc12 (stereo not drawn),28.4 µM (inactive),–,37.1 µM (inactive),43 µM (inactive),38.3 µM (inactive),76.4 µM (inactive),49.8 µM (inactive),30 µM (inactive),70.5 µM (inactive),30.8 µM (inactive),29.7 µM (inactive),67.3 µM (inactive),55.6 µM (inactive),37.4 µM (inactive),81.8 µM (inactive),27.6 µM (inactive),43.2 µM (inactive),–,80.5 µM (inactive)
C[C@@]1(O)C2CC3CC1(c1ccccc1)CC(/C3=N/O)/C2=N\O (stereo partly drawn),> 100 µM (inactive),> 100 µM (inactive),> 100 µM (inactive),> 100 µM (inactive),> 100 µM (inactive),> 100 µM (inactive),> 100 µM (inactive),> 100 µM (inactive),> 100 µM (inactive),> 100 µM (inactive),> 100 µM (inactive),> 100 µM (inactive),> 100 µM (inactive),> 100 µM (inactive),> 100 µM (inactive),> 100 µM (inactive),–,> 100 µM (inactive),–
COc1ccc(/C=C/[N+](=O)[O-])cc1,3.61 µM (inactive),3.53 µM (inactive),3.52 µM (inactive),3.75 µM (inactive),3.24 µM (inactive),–,–,3.6 µM (inactive),14.4 µM (inactive),20.4 µM (inactive),1.66 µM (inactive),8.07 µM (inactive),2.67 µM (inactive),16.7 µM (inactive),20 µM (inactive),3.18 µM (inactive),–,1.86 µM (inactive),2.02 µM (inactive)
COc1ccc(-n2nnnc2C2(Nc3ccccc3)CCN(Cc3ccccc3)CC2)cc1,–,3.13 µM (inactive),12.3 µM (inactive),13.6 µM (inactive),6.82 µM (inactive),13.6 µM (inactive),–,25.2 µM (inactive),15.7 µM (inactive),–,16.4 µM (inactive),16.5 µM (inactive),19 µM (inactive),21.3 µM (inactive),–,3.77 µM (inactive),–,3.29 µM (inactive),7.73 µM (inactive)
O=C(c1ccccc1)c1nc2c(Cl)ccc(Cl)c2cc1C(Br)Br,1.55 µM (inactive),0.311 µM (active),1.54 µM (inactive),0.286 µM (active),–,–,1.58 µM (inactive),1.97 µM (inactive),1.08 µM (active),1.54 µM (inactive),0.484 µM (active),1.67 µM (inactive),1.44 µM (inactive),1.82 µM (inactive),2.01 µM (inactive),1.14 µM (inactive),–,–,–
O=C1C2=C(c3ccccc31)C(c1ccc(F)cc1)N1C(=O)CCSC1=N2 (stereo not drawn),> 100 µM (inactive),> 100 µM (inactive),> 100 µM (inactive),> 100 µM (inactive),> 100 µM (inactive),> 100 µM (inactive),69 µM (inactive),93.3 µM (inactive),> 100 µM (inactive),72.8 µM (inactive),> 100 µM (inactive),> 100 µM (inactive),> 100 µM (inactive),56 µM (inactive),> 100 µM (inactive),55.1 µM (inactive),–,–,–
O=C1Nc2ccc(Br)cc2/C1=N/N1C(=O)C(=O)N(C2CCCCC2)C1=S,2.47 µM (inactive),3.69 µM (inactive),9.64 µM (inactive),5.46 µM (inactive),2.75 µM (inactive),4.33 µM (inactive),3.1 µM (inactive),7.03 µM (inactive),9.75 µM (inactive),–,5.66 µM (inactive),2.92 µM (inactive),–,4.44 µM (inactive),1.41 µM (inactive),3.48 µM (inactive),2.02 µM (inactive),1.94 µM (inactive),4.17 µM (inactive)
CC/C=C1\N=C(c2ccc(Cl)cc2)OC1=O,> 100 µM (inactive),> 100 µM (inactive),> 100 µM (inactive),> 100 µM (inactive),> 100 µM (inactive),> 100 µM (inactive),> 100 µM (inactive),> 100 µM (inactive),> 100 µM (inactive),> 100 µM (inactive),> 100 µM (inactive),> 100 µM (inactive),> 100 µM (inactive),> 100 µM (inactive),> 100 µM (inactive),> 100 µM (inactive),–,–,–
